Results: patent US7030265B2, “Retinol derivatives, the method of preparations and the uses thereof” (Chebigen, Inc., priority 2001, dated 2006)

Key:
Assay type in all cases: cell-based
[1] = target: T1, retinoid X receptor α (Homo sapiens, UniProt P19793); test: RXR activity test, DR1-tk-CAT reporter in HaCAT cells; details: 1 μM, CAT ELISA, FIG. 2 (B)
T1 construct: expressed in transfected cells; host or cells: HaCAT
T1 sequence (P19793 1-462): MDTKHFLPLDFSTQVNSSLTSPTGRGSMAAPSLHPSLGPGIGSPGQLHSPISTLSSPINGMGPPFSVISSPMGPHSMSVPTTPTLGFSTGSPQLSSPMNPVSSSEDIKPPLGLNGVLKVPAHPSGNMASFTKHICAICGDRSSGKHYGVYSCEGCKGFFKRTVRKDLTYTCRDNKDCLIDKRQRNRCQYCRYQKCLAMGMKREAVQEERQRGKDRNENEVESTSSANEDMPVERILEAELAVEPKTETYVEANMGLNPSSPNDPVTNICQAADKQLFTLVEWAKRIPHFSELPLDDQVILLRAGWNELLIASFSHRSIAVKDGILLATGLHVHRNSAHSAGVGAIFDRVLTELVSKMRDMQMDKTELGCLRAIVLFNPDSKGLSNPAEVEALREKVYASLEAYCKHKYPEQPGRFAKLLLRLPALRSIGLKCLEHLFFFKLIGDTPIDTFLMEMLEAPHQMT
From the text: (§1) To analyze the effects of retinol-(N-formyl-aspartam) on the activity of retinoic acid receptor, skin cancer (HaCAT) cell lines were utilized to measure the activity of retinoic acid receptor/retinoid X receptor.
(§2) Recombinant DNA, DR5-tk-CAT or DR1-tk-CAT consisting of DR1 or DR5, effectors of retinoic acid receptor/retinoid X receptor, thymine kinase promoter, and CAT(chloramphenicol acetyl transferase) were mixed with the plasmid DNA expressing retinoic acid receptor α, β, ? or retinoid X receptor α, β, ? to cotransfect skin cancer (HaCAT) cell line with lipofectamine (GibcoBRL). The cotransfected cell lines were cultured for 1 day on DMEM/10% FBS media, each retinol derivatives (1 μM) were added and cultured for one more day, 5% CO2, 37° C. The cells were washed with phosphate-buffered saline (PBS), and the proteins were isolated from each cells, and the activity of β-galactosidase and protein contents were measured to determine transfection efficacy, the transcription level of RAR or RXR receptor were measured with CAT ELISA (Roche Molecular Biochemical, Mannheim, Germany).

[2] = target: T2, retinoid X receptor γ (Homo sapiens, UniProt P48443); test: as above; details: 1 μM, CAT ELISA, FIG. 2 (B)
T2 construct: expressed in transfected cells; host or cells: HaCAT
T2 sequence (P48443 1-463): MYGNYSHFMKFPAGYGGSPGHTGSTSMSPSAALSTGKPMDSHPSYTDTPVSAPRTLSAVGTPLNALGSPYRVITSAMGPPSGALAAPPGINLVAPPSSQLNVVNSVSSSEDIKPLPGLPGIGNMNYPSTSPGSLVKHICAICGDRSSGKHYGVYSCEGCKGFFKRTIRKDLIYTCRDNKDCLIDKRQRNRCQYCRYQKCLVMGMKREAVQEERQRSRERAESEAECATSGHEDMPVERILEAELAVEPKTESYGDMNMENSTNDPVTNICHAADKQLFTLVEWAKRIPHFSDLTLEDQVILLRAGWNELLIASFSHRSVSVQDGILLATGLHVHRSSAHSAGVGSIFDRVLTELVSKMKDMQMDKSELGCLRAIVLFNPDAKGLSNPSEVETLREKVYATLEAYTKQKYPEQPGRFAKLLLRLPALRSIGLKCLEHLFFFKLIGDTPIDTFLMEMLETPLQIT
From the text: as §1, §2

[3] = test system: activation protein-1 (AP-1); test: Activity inhibition test of AP-1, Coll-CAT reporter in HaCAT cells; details: c-Jun expression, in the presence of retinoic acid receptor α, CAT ELISA, FIG. 6
Protocol: Since the activation protein-1 (c-Jun is the constituent of AP-1) is transcription factor inducing expression of collagenase enzyme, which is a major cause of skin wrinkle, the effect of wrinkle prevention was determined by the activity inhibition test of AP-1.
CAT reporter (Coll-CAT) containing collagen promoter including AP-1 transcription factor binding site (TRE) were utilized to cotransfect skin cancer (HaCAT) cell line. The effect of retinol derivatives on the activity of AP-1 was measured by CAT ELISA. In some cases, the vector expressing c-Jun or retinoic acid receptors were utilized to cotransfect, and the effect of retinol derivatives on the transcription activity of c-Jun was analyzed.
With the assumption of the prepared retinol-(N-formyl-aspartam) derivatives which inhibit the activity of AP-1 causing skin wrinkle, would have the utility for cosmetics, the related investigations were proceeded. Similar to the experiment of retinoic acid receptor, AP-1 (c-jun) expression vector and Coll-CAT plasmid for the activity measurement were introduced into the skin cancer (HaCAT) cell line with liposome. After treating the cells with retinol-(N-formyl-aspartam) derivatives, the cell extracts were isolated. The expression level of CAT were measured with CAT ELISA to determine the effect of retinol-(N-formyl-aspartam) on the activity of the AP-1.

[4] = test system: HCT116 (colon cancer); test: Cell toxicity test (living cell count); details: HCT116 cells, 0, 500, 1000, 5000 nM, 4 days, FIG. 1
Protocol: (§3) The cell line utilized for cell toxicity test of retinal derivatives were SK-Hep-1(liver cancer), MDA-MB-231 (breast cancer), HaCAT (skin cancer), and HCT116 (colon cancer). Those cell lines were maintained and cultured in DMEM (Dulbecco's Modified Eagle's Medium)/10% FBS containing 10% fetal bovine serum (FBS) (GibcoBRL, Gaithersburg, Md.). 3×10^3 cells, 100 μl media per well were distribute into 96 well microtiter plate and cultured for 24 hours. Each cultured cell lines were treated with various concentrations of retinal derivatives (0, 500, 1000, 5000 nM) for 4 days and living cells were counted with hemocytometer to measure the inhibition effect of cell proliferation.
(§4) The retinal derivatives utilized for the experiments were retinol-(N-formyl-aspartam), retinol, 4-HPR[N-(4-hydroxyphenyl)retineamide] (Sigma Co., St. Louis, Mo.). Those derivatives were eluted in dimethylsulfoxide and the concentration of dimethylsulfoxide added into culture media was kept at not over 0.01%.

[5] = test system: HaCAT (skin cancer); test: Cell toxicity test (living cell count); details: HaCAT cells, 0, 500, 1000, 5000 nM, 4 days, FIG. 1
Protocol: as §3, §4

[6] = test system: MDA-MB-231 (breast cancer); test: Cell toxicity test (living cell count); details: MDA-MB-231 cells, 0, 500, 1000, 5000 nM, 4 days, FIG. 1
Protocol: as §3, §4

[7] = test system: SK-Hep-1 (liver cancer); test: Cell toxicity test (living cell count); details: SK-Hep-1 cells, 0, 500, 1000, 5000 nM, 4 days, FIG. 1
Protocol: as §3, §4

[8] = test system: activation protein-1 (AP-1); test: Activity inhibition test of AP-1, Coll-CAT reporter in Cos-1 cells; details: expression level in the presence of c-Jun expression set as 100%
From the text: CAT reporter (Coll-CAT) containing collagen promoter including AP-1 transcription factor binding site (TRE) was utilized to transfect Cos-1 cell line. Activity inhibition tests of activation protein-1 (AP-1) similar to the experimental example 6 were proceeded.

`COC(=O)C(Cc1ccccc1)NC(=O)[C@H](CC(=O)OC/C=C(C)/C=C/C=C(C)/C=C/C1=C(C)CCCC1(C)C)NC=O` (stereo partly drawn) [retinol-(N-formyl-aspartam), (2E,4E,6E,8E)-3,7-dimethyl-9-(2,6,6-trimethyl-1-cyclohexenyl)-2,4,6,8-nonatetraenyl(3S)-4-[(1-benzyl-2-methoxy-2-oxoethyl)amino]-3-formylamino-4-oxobutanoate] was tested, and the “activation of retinoid X receptor α” value [1] was “no activation”, the “activation of retinoid X receptor γ” value [2] was “no activation” and the “lowered the expression of collagenase (Coll-CAT)” value [3] was ~44%. The “cell toxicity (inhibition of cell proliferation)” value [4] was “less toxicity than retinol”, the “cell toxicity (inhibition of cell proliferation)” value [5] was “no toxicity” and the “cell toxicity (inhibition of cell proliferation)” value [6] was “no toxicity”. The “cell toxicity (inhibition of cell proliferation)” value [7] was “no toxicity” and the “lowered the expression of collagenase (Coll-CAT)” value [8] was “approximately 42%”.
